Legend:
[1] = tested on: differentiated SH-SY5Y cells; experiment: Neutral red (NR) uptake cytotoxicity assay; assay type: cell-based, human; conditions: for EC50: Homo sapiens; for EC20 (concentration inducing 20% of cytotoxicity) / EC80 (concentration inducing 80% of cytotoxicity): NR uptake; for Bottom (baseline, % control) / Top (maximal cell death, % control): fitted NR curve, SH-SY5Y cells
Description: (§1) The cells were seeded at a density of 25,000 cells/cm^2. To achieve a more mature neuron-like phenotype, SH-SY5Y cells were initially cultured in a complete medium supplemented with RA (10 µM). Subsequently, 3 days post-seeding, TPA (80 nM) was added to each well, and the cells were maintained for another 3 days until use, thus achieving a dopaminergic phenotype. In all the experiments, the cells were used between passages 22 and 28.
(§2) The differentiated SH-SY5Y cells (25,000 cells/cm^2) and primary rat cortical cultures (150,000 cells/cm^2) were seeded onto 96-well plates as previously described.
(§3) Accordingly, 6 days after seeding (differentiated SH-SY5Y cells) or at 8 DIV (primary cultures), the cells were exposed, for 24 h (37 °C, 5% CO2), to different concentrations of the drugs (0–1000 µM). Thus, the tested concentrations ranged from 0 to 1000 µM for 2C-T-2 and 2C-T-4; 0 to 500 µM for 2C-T-7; 0 to 250 µM for 25T2-NBOMe, and 0 to 100 µM for 25T4-NBOMe and 25T7-NBOMe.
The NR uptake assay is based on the detection of viable cells through the incorporation of the NR dye by the cell’s lysosomes. In brief, after 24 h of exposure to the tested drugs, the differentiated SH-SY5Y cells and primary rat cortical cultures were incubated with NR (50 µg/mL in complete medium) for 90 or 210 min, respectively, at 37 °C, in a 5% CO2-95% air atmosphere. To extract the absorbed dye, an acidified ethanol solution was used, and the absorbance was then measured at 540 nm in a multi-well plate reader (PowerWaveX, BioTek Instruments, Winooski, VT, USA). The cytotoxicity was estimated by the percentage of NR uptake relative to the control cells, and a minimum of 4 independent experiments were conducted in triplicate.

[2] = tested on: differentiated SH-SY5Y cells; experiment: MTT reduction cytotoxicity assay; assay type: cell-based, human; conditions: for EC50: Homo sapiens, differentiated SH-SY5Y cells, 24 h of exposure, mean (95% CI); for Bottom (baseline, % control) / Top (maximal cell death, % control): fitted MTT curve, SH-SY5Y cells, 24 h
Description: as §1, §2, §3
The MTT reduction assay is based on the capacity of metabolically active cells to reduce the water-soluble yellow tetrazolium dye (MTT) into water-insoluble formazan crystals. In brief, after 24 h of exposure to the tested drugs, the differentiated SH-SY5Y cells were incubated with MTT (0.5 mg/mL in complete medium) for 90 min, at 37 °C, in a 5% CO2-95% air atmosphere. To solubilize the formed formazan crystals, an organic solvent (DMSO) was used, and the absorbance was then measured at 550 nm in a multi-well plate reader (PowerWaveX, BioTek Instruments, Winooski, VT, USA). The cytotoxicity was estimated by the percentage of MTT reduction relative to the control cells, and a minimum of 4 independent experiments were conducted in triplicate.

[3] = tested on: differentiated SH-SY5Y cells; experiment: Total glutathione (tGSH) levels, DTNB-GSH recycling assay; assay type: cell-based, human; conditions: control 100.0%
Text: Glutathione has a critical role in cellular physiology, playing multiple essential roles in maintaining cellular health and function, including antioxidant defense, detoxification, and cellular signaling. The 5,5′-dithiobis(2-nitrobenzoic acid) (DTNB)-GSH recycling assay was used to measure total GSH (tGSH), which includes the reduced (GSH) and oxidized (GSSG) forms of glutathione. The assay relies on the reaction of GSH with DTNB, producing the yellow-colored 5-thio-2-nitrobenzoic acid (TNB). Thus, the TNB generated is directly proportional to the amount of GSH present in the sample [31].
Thus, the SH-SY5Y cells were seeded onto 6-well plates (25,000 cells/cm^2) following the previously described seeding and differentiation protocol. On the day of the experiment, the cells were exposed to different concentrations of the tested drugs (EC20 and EC50) for 24 h (37 °C, 5% CO2). At the end of the incubation period, the cells were centrifuged (5 min, 250 g, 4 °C). For the analysis of extracellular GSH levels, the supernatants were collected, and proteins precipitated with 30% HClO4 for at least 30 min (4 °C). For the analysis of intracellular GSH levels, after collecting the supernatants, the cells were treated with 5% HClO4 for at least 30 min (4 °C). Subsequently, the acidic samples were collected from the plates and centrifuged (5 min, 16,000× g, 4 °C), and the supernatants were stored until further analysis (−80 °C). To assess protein content, the pellets were resuspended in 1M NaOH, maintained at 4 °C overnight, and stored until further analysis (−20 °C). A Bio-Rad DC™ protein assay kit (Bio-Rad Laboratories, Hercules, CA, USA) was used to analyze protein content, in accordance with the manufacturer’s guidelines.
Before the tGSH quantification, the acidic samples were diluted (1:2) with 5% HClO4, and the diluted samples/standards were neutralized with an ice-cold KHCO3 solution (1:1) and centrifuged (5 min, 16,000× g, 4 °C).
Then, 100 µL of supernatant from each sample/standard was transferred into a 96-well plate and 65 µL of an extemporaneous reagent solution (0.68 mM NADPH and 3.96 mM DTNB prepared in a 7.5 pH phosphate buffer) was added to each well, and the plates were incubated for 15 min at 30 °C. After 15 min, 40 μL of a 10 U/mL glutathione reductase solution was added to each well and the formation of 5-thio-2-nitrobenzoic acid (TNB) was monitored every 10 s for 3 min (kinetic mode) at 415 nm in a multi-well plate reader (PowerWaveX, BioTek Instruments, Winooski, VT, USA).
The GSH levels were standardized to protein content. The results are presented as a percentage relative to the control cells (0 µM). A minimum of 6 independent experiments were conducted, in duplicate.
Glutamate/cysteine ligase (GCL), also recognized as gamma-glutamylcysteine synthetase (γ-GCS), is a key enzyme in the first step of glutathione biosynthesis, as it catalyzes the reaction between glutamate and cysteine to produce γ-glutamylcysteine. […] The SH-SY5Y cells were seeded onto 6-well plates (25,000 cells/cm^2) following the previously described seeding and differentiation protocol. On the day of the experiment, the cells were incubated with BSO (100 µM) for 24 h (37 °C, 5% CO2) and the quantification of GSH intracellular levels was achieved according to the previously described method in Section 2.11.

[4] = tested on: serotonergic B65 cells; parameters: method as in doi:10.1007/s11419-020-00527-w; conditions: 50 μM, 3 h exposure; cited from earlier work
[5] = bound stated for both SH-SY5Y cells and primary rat cortical cultures, 24 h, read-out: EC50 values, NR uptake assay, both cellular models
[6] = differentiated SH-SY5Y cells, 24 h of exposure, mean (95% CI), read-out: NR EC50 Values
[7] = differentiated SH-SY5Y cells, 24 h, mean (95% CI)

| SMILES | EC50 [1, 5] | EC50 [1, 6] | EC20 (concentration inducing 20% of cytotoxicity) [1, 7] | EC80 (concentration inducing 80% of cytotoxicity) [1, 7] | Bottom (baseline, % control) ([1]; 24 h) | Top (maximal cell death, % control) ([1]; 24 h) | EC50 [2] | Bottom (baseline, % control) [2] | Top (maximal cell death, % control) [2] | intracellular tGSH levels, % of control cells ([3]; drug at its EC20, 24 h) | intracellular tGSH levels, % of control cells ([3]; drug at its EC50, 24 h) | mitochondrial production of ROS [4] |
| --- | --- | --- | --- | --- | --- | --- | --- | --- | --- | --- | --- | --- |
| CCCSc1cc(OC)c(CCN)cc1OC.Cl [2C-T-7, 2-(2,5-dimethoxy-4-(propylthio)phenyl)ethan-1-aminium chloride] | < 75 µM | 74.5 µM | 39.5 (34.4 to 44.4) μM | 140.5 (125.4 to 161.2) μM | 6.754 % control | 97.99 % control | 92.3 µM | 5.625 % control | 100.0 % control | 84.2% | 82.4% | increase in the mitochondrial production of ROS |
| CCSc1cc(OC)c(CCNCc2ccccc2OC)cc1OC.Cl [25T2-NBOMe, 2-(4-(ethylthio)-2,5-dimethoxyphenyl)-N-(2-methoxybenzyl)ethan-1-aminium chloride] | > 25 µM | 37.4 µM | – | – | 1.962 % control | 98.41 % control | 46.8 µM | 3.123 % control | 95.97 % control | 54.4% | 49.2% | – |
| CCCSc1cc(OC)c(CCNCc2ccccc2OC)cc1OC.Cl [25T7-NBOMe, 2-(2,5-dimethoxy-4-(propylthio)phenyl)-N-(2-methoxybenzyl)ethan-1-aminium chloride] | < 22 µM | 21.8 µM | – | – | 8.660 % control | 94.74 % control | 23.3 µM | 2.444 % control | 96.91 % control | 72.2% | 52.0% | – |
| CCSc1cc(OC)c(CCN)cc1OC.Cl [2C-T-2, 2-(4-(ethylthio)-2,5-dimethoxyphenyl)ethan-1-aminium chloride] | > 215 µM | 246 µM | 123.2 (107.1 to 138.8) μM | 491.0 (413.7 to 514.4) μM | 4.054 % control | 100.0 % control | 306 µM | 4.516 % control | 97.13 % control | 87.0% | 80.0% | increase in the mitochondrial production of ROS |
| COc1cc(SC(C)C)c(OC)cc1CCNCc1ccccc1OC.Cl [25T4-NBOMe, 2-(4-(isopropylthio)-2,5-dimethoxyphenyl)-N-(2-methoxybenzyl)ethan-1-aminium chloride] | – | 35.7 µM | – | – | – | 100.0 % control | 36 µM | 1.753 % control | 100.0 % control | 71.2% | 60.3% | – |
| COc1cc(SC(C)C)c(OC)cc1CCN.Cl [2C-T-4, 2-(4-(isopropylthio)-2,5-dimethoxyphenyl)ethan-1-aminium chloride] | – | 154 µM | 81.5 (79.9 to 92.1) μM | 291.4 (255.9 to 342.3) μM | 5.069 % control | 96.98 % control | 191 µM | 4.106 % control | 99.28 % control | 81.4% | 75.8% | no significant alterations |

Reference: publication PMC11204507, “Mechanistic Insights into the Neurotoxicity of 2,5-Dimethoxyphenethylamines (2C) and Corresponding N-(2-methoxybenzyl)phenethylamine (NBOMe) Drugs” (Journal of Xenobiotics, 2024)
